SMILES | melting point [°C]
COc1ncnc2c1c1cc(Cl)ccc1n2[C@@H]1O[C@H](CO)[C@@H](O)[C@@H]1O | 238 to 241
CSc1ncnc2c1c1cc(Cl)ccc1n2[C@@H]1O[C@H](CO)[C@@H](O)[C@@H]1F | 230 to 231
COc1ncnc2c1c1cc(Cl)ccc1n2[C@@H]1O[C@H](CO)[C@@H](O)[C@@H]1F | 248 to 250
OC[C@H]1O[C@@H](n2c3ccc(Cl)cc3c3c(-c4ccoc4)ncnc32)[C@@H](O)[C@@H]1O | 186 to 188
OC[C@H]1O[C@@H](n2c3ccc(Cl)cc3c3c(-c4ccsc4)ncnc32)[C@@H](O)[C@@H]1O | 207 to 209
Nc1ncnc2c1c1cc(Cl)ccc1n2[C@@H]1O[C@H](CO)[C@@H](O)[C@@H]1F | 267 to 272
OC[C@H]1O[C@@H](n2c3ccc(Cl)cc3c3c(-c4ccco4)ncnc32)[C@@H](F)[C@@H]1O | 75 to 81
Nc1ncnc2c1c1cc(Cl)ccc1n2[C@@H]1O[C@H](CO)[C@@H](O)[C@H]1F | 275 to 278
OC[C@H]1O[C@@H](n2c3ccc(Cl)cc3c3c(-c4ccco4)ncnc32)[C@@H](O)[C@@H]1O | 241 to 243
OC[C@H]1O[C@@H](n2c3ccc(Cl)cc3c3c(-c4ccsc4)ncnc32)[C@H](F)[C@@H]1O | 221 to 222
OC[C@H]1O[C@@H](n2c3ccc(Cl)cc3c3c(-c4ccsc4)ncnc32)[C@@H](F)[C@@H]1O | 240 to 241
OC[C@H]1O[C@@H](n2c3ccc(Cl)cc3c3c(-c4cccs4)ncnc32)[C@H](F)[C@@H]1O | 206 to 211
OC[C@H]1O[C@@H](n2c3ccc(Cl)cc3c3c(-c4ccoc4)ncnc32)[C@H](F)[C@@H]1O | 184 to 186
Cc1ncnc2c1c1cc(Cl)ccc1n2[C@@H]1O[C@H](CO)[C@@H](O)[C@@H]1O | 233 to 235

The remaining lines, values ahead:

melting point [°C] | SMILES
205 to 209 | CSc1ncnc2c1c1cc(Cl)ccc1n2[C@@H]1O[C@H](CO)[C@@H](O)[C@H]1F
214 to 216 | OC[C@H]1O[C@@H](n2c3ccc(Cl)cc3c3c(-c4ccccc4)ncnc32)[C@@H](F)[C@@H]1O
192 to 194 | OC[C@H]1O[C@@H](n2c3ccc(Cl)cc3c3c(-c4cccs4)ncnc32)[C@@H](O)[C@@H]1O
247 to 251 | Cc1ncnc2c1c1cc(Cl)ccc1n2[C@@H]1O[C@H](CO)[C@@H](O)[C@H]1F
181 to 183 | CSc1ncnc2c1c1cc(Cl)ccc1n2[C@@H]1O[C@H](CO)[C@@H](O)[C@@H]1O
225 to 227 | OC[C@H]1O[C@@H](n2c3ccc(Cl)cc3c3c(-c4cccs4)ncnc32)[C@@H](F)[C@@H]1O
192 to 193 | OC[C@H]1O[C@@H](n2c3ccc(Cl)cc3c3c(-c4ccccc4)ncnc32)[C@H](F)[C@@H]1O
208 to 214 | OC[C@H]1O[C@@H](n2c3ccc(Cl)cc3c3c(-c4ccoc4)ncnc32)[C@@H](F)[C@@H]1O
298 to 301 | Nc1ncnc2c1c1cc(Cl)ccc1n2[C@@H]1O[C@H](CO)[C@@H](O)[C@@H]1O
211 to 216 | Cc1ncnc2c1c1cc(Cl)ccc1n2[C@@H]1O[C@H](CO)[C@@H](O)[C@@H]1F
203 to 206 | OC[C@H]1O[C@@H](n2c3ccc(Cl)cc3c3c(-c4ccco4)ncnc32)[C@H](F)[C@@H]1O
183 to 185 | OC[C@H]1O[C@@H](n2c3ccc(Cl)cc3c3c(-c4ccccc4)ncnc32)[C@@H](O)[C@@H]1O

— PMC6084004 (2017)
